pIC50: −log10 of the molar value. Counter-ions that a name gives are not always drawn.
Key:
[1] = test system: Sprague-Dawley rats; assay: In vivo method for determining the effect on heart contractility (left ventricular dp/dtmax); details: Rattus norvegicus, iv, read-out: Contractility increase (%)
Experimental: Adult male Sprague-Dawley rats (Harlan Winkelmann, Borchen, Germany) weighing 340 to 370 g were anesthetized with pentobarbital (100 mg/kg i.p.) and ventilated with a mixture of oxygen (40%) and room air (60%) at a tidal volume of 1 ml/100 g at 60 breaths/min. Body temperature was maintained at 36.5±0.3° C. with a heating lamp and was monitored with a rectal thermo sensor. Systemic blood pressure was measured in the left carotid artery using a pressure transducer (Combitrans; B. Braun Melsungen AG, Melsungen, Germany) connected to a DC-bridge-amplifier (PLUGSYS/ADC Type 663; Harvard Apparatus GmbH, March-Hugstetten, Germany). The electrocardiogram was measured as lead II via subcutaneously placed electrodes connected to a Heart-Rate-Module ([…] Type 669; Harvard Apparatus GmbH, March-Hugstetten, Germany). A micro-tip catheter (2 French, SPR-320; Millar Instruments, Houston, Tex., USA) was placed via the right carotid artery into the left ventricle, and the left ventricular pressure (LVP) and the enddiastolic pressure (EDP) were continuously measured. Registration of the hemodynamic data was performed via an analog digital converter by a personal computer using Notocord software (HEM version 3.5). Left ventricular contractility (dp/dtmax) and relaxation (dp/dtmin) were calculated from the LVP signal. For intravenous administration of the test compounds, the left jugular vein was prepared and a PP-50 catheter was inserted. Test compounds were administered either by intravenous bolus injection or by intravenous infusion by means of an infusion pump (Unita; B. Braun Melsungen AG, Melsungen, Germany). […] In a typical experiment, several dosages of the test compound were administered subsequently at increasing doses. Statistical significance of the data obtained with drug vs. control experiments, in which solvent was administered, was evaluated with the 2-sided ANOVA test (program Everstat). Increases in left ventricular contractility (percent increase) by example compounds are given in Table 3 in comparison to control experiments in which solvent was administered.

[2] = target: T1, human NCX1 (Homo sapiens, UniProt P32418); assay: NCX1 inhibition, forward mode (Ca2+ efflux out of cells), FLIPR calcium assay; type: cell-based; details: for pIC50: CHO cells stably expressing human NCX1, read-out: NCX1fw IC50
T1 construct: expressed in transfected cells
Excerpt: The sodium/calcium exchanger NCX1 can transport calcium ions and sodium ions through the cell membrane. The transport is an exchange of Ca^2+ and Na^+ in two directions depending on membrane potential and ion gradients. At the first direction, named “forward mode” or “calcium export mode”, Ca^2+ is transported out of the cell and Na^+ is transported into the cell. At the other direction, named “reverse mode” or “calcium import mode”, the transport directions are vice versa. The effect of the compounds of the invention on NCX1 was determined in CHO cells stably expressing human NCX1 (gene symbol SLC8A1; cf. WO 2009/115238). The assay is based on the monitoring of intracellular Ca^2+ concentrations using a calcium-sensitive fluorescence dye which is detected by means of a FLIPR device (Fluorimetric Imaging Plate Reader, Molecular Devices).
The assay is based on the monitoring of intracellular Ca^2+ concentrations using the PBX Calcium Assay Kit from BD (Becton, Dickinson and Company) with calcium indicator dye 51-9000177BKa (BD, 640177). CHO cells expressing NCX1 were loaded with the dye, and after a preincubation period with the test compound, Ionomycin (Calbiochem, 407950) was added. Ionomycin is an ionophor for Ca^2+ ions mediating an increase of intracellular Ca^2+ ions. Consequently, intracellular Ca^2+ ions are exchanged against extracellular Na^+ ions (Ca^2+ efflux, forward mode). The decrease of intracellular Ca^2+ ions was detected by measuring the fluorescence of the calcium indicator dye at a wavelength of 520 nm by a FLIPR device.
Briefly, similarly as for the reverse mode, for the forward mode transport assay 18000 cells per well were seeded into a 96 well microplate (Corning COSTAR 3904) and incubated overnight in culture medium (cf. above). A total volume of 100 μl medium per well was used. For the preparation of the FLIPR assay, the culture medium was removed from the plates and 100 μl of assay buffer (133.8 mM NaCl (Sigma, S5886); 4.7 mM KCl (Sigma, P3911); 1.25 mM MgCl2 (Merck, 1.05833.0250); 3.5 mM CaCl2(Merck, 1.02083.0250); 5 mM glucose (Sigma, G7021); 10 mM Hepes (Sigma, H4034); pH 7.4)) were added to each well in a washing step. Assay buffer was removed, and 100 μl of a solution of the test compound in assay buffer in different concentrations were added into the wells. Further, 100 μl of dye solution (0.09% (v/v) calcium indicator dye, 9.1% (v/v) signal enhancer (from PBX Calcium Assay Kit); in assay buffer) were added into each well. The plates were incubated in the dark at room temperature for 60 min. Meanwhile a 10 μM solution of Ionomycin in assay buffer (additionally containing 0.05% fetal calf serum (cf. above); 4° C.) was prepared and stored in the wells of a 96 well microplate (96 well microplate, polypropylene, U-shape (Greiner Bio-One, 650201)). The fluorescence monitoring was performed at 60 measuring points with measurement intervals of 2 sec. After the fifth measuring point, 50 μl of the Ionomycin solution were added to each well of the assay plate to give a final Ionomycin concentration of 2 μM. For the determination of the IC50 values the minimal fluorescence value was subtracted from the maximal fluorescence value for the fifteenth to fifty-fifth measuring points. The calculation of the IC50 values via the percentage inhibitions of Ca^2+ efflux out of cells (forward mode) effected by the test compound was performed in Biost@t Speed 2.0. “NCX1fw IC50” in Table 2 means the IC50 value for inhibition of NCX1 in forward mode (in μM (micromol/liter)).

[3] = target: T1, human NCX1; assay: NCX1 inhibition, reverse mode (Ca2+ influx into cells), FLIPR Fluo-4 assay; type: cell-based; details: inhibition of NCX1 in reverse mode (Ca2+ influx into cells); read-out: NCX1rv IC50
Procedure, shortened: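 CHO cells stably expressing human NCX1 were loaded with 2 µM Fluo-4 AM for 80 min at room temperature, then preincubated with compound for 45 min at 16 °C in pH 7.4 HEPES buffer (3.5 mM CaCl2, 2.5 mM probenecid). Reverse-mode Ca2+ influx was triggered by 20 µM final gramicidin and read at 520 nm on FLIPR. IC50 came from % inhibition of max−min fluorescence.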

Row | pIC50 [2] | pIC50 [3] | inhibition at 10 µM ([2]; 10 μM, CHO cells stably expressing human NCX1, read-out: Inhibition in % at 10 μM, IC50 value not determined) | Structure (SMILES) | change in vivo at 0.03 mg/kg/min [1] | change in vivo at 0.1 mg/kg/min [1]
1 |  | 6.70 | 26% | Cc1ccccc1[C@H]1CCc2cc(Oc3ncc(C(=O)NCCO)s3)ccc2O1 [Example 325, 2-((R)-2-o-Tolyl-chroman-6-yloxy)-thiazole-5-carboxylic acid (2-hydroxy-ethyl)-amide] |  | 
2 | 6.10 | 6.19 |  | Cc1ccc(F)cc1C1CCc2cc(Oc3ncc(C(=O)N(C)C)s3)ccc2O1 (stereo not shown) [Example 348] |  | 
3 | 6.05 | 6.52 |  | CC(NC(=O)c1cnc(Oc2ccc3c(c2)CCC(c2cccc(F)c2)O3)s1)c1ccncc1 (stereo not shown) [Example 13, hydrochloride] |  | 

Row | Structure (SMILES) | pIC50 [2] | pIC50 [3] | inhibition at 10 µM ([2]; 10 μM, CHO cells stably expressing human NCX1, read-out: Inhibition in % at 10 μM, IC50 value not determined) | change in vivo at 0.03 mg/kg/min [1] | change in vivo at 0.1 mg/kg/min [1]
4 | Cc1ccccc1[C@@H]1CCc2cc(Oc3ncc(C(=O)NCCOP(=O)(O)O)s3)ccc2O1 [Example 345, Phosphoric acid mono-(2-{[2-((S)-2-o-tolyl-chroman-6-yloxy)-thiazole-5-carbonyl]-amino}-ethyl) ester disodium salt] | 5.52 | 7.15 |  | 32% | 85%
